Data published in patent publication US20200017496A1 (priority 2017, published 2020).
Read-outs that look alike come from different tables or passages of the source.

Columns and labels:
SHV-12 = target: T1, SHV-12 (Klebsiella pneumoniae, UniProt P0AD64, E235K/G234S/L31Q); test: β-lactamase inhibitory activity, IC50 (nitrocefin hydrolysis); format: biochemical
T1 construct: made in house; host or cells: E. coli

KPC-2 = target: T2, KPC-2 (Klebsiella pneumoniae, UniProt Q9F663); test: biochemical
T2 construct: made in house; host or cells: E. coli

OXA-15 = target: T3, OXA-15 (Pseudomonas aeruginosa, UniProt Q51574); test: biochemical
T3 construct: made in house; host or cells: E. coli

OXA-58 = target: T4, OXA-58 (Acinetobacter baumannii, UniProt Q2TR58); test: β-lactamase inhibitory activity, IC50 (nitrocefin hydrolysis); format: biochemical
T4 construct: made in house; host or cells: E. coli
Method: (§1) Method 1: β-Lactamase Inhibitory Activity, Determination of IC50 (Table 1)
(§2) Enzymes were cloned in E. coli expression vector, expressed and purified in house using classical procedures. […] After 30 min of pre-incubation at room temperature, 155 μL of NCF (100 μM final) were finally added in each well. […] Enzyme activity was obtained by subtracting the background from the final signal, and was converted to enzyme inhibition using non inhibited wells. IC50 curves were fitted to a classical Langmuir equilibrium model with Hill slope using XLFIT (IDBS).

OXA-11 = target: T5, OXA-11 (Pseudomonas aeruginosa, UniProt Q06778); test: as above; format: biochemical
T5 construct: made in house; host or cells: E. coli
Method: as §1, §2

[1] = target: CMY-37 (Citrobacter freundii); test: as above; format: biochemical
Method: as §1, §2

CTX-M-15 = target: T6, CTX-M-15 (Escherichia coli, UniProt Q9EXV5); test: biochemical
T6 construct: made in house; host or cells: E. coli

[2] = test system: Providencia stuartii (PST) isolates; test: MIC of compounds alone and combined with antibacterials, broth microdilution (CLSI); format: cell-based; conditions: Providencia stuartii
Method: (§3) Method 2: MIC of Compounds Alone and Combined with Antibacterials Against Bacterial Isolates.
(§4) Compounds of the present invention were assessed against genotyped bacterial strains (Table 3, 4) alone or in combination with an antibacterial (Table 2). […] Log phase bacterial suspensions were adjusted to a final density of 5·10^5 CFU/mL in cation-adjusted Mueller-Hinton broth (ca-MHB; Becton-Dickinson and Company) and added to each well (98 μL). Microplates were incubated for 16-20 h at 35° C. in ambient air. The MIC of the compounds was defined as the lowest concentration of said compounds that prevented bacterial growth as read by visual inspection. The MIC of ATB at each compound concentration was defined as the lowest concentration of ATB that prevented bacterial growth as read by visual inspection.

[3] = test system: Serratia marcescens (SMA) isolates; test: as above; format: cell-based; conditions: Serratia marcescens
Method: as §3, §4

[4] = test system: Enterobacter aerogenes (EAE) isolates; test: as above; format: cell-based; conditions: Klebsiella aerogenes
Method: as §3, §4

[5] = test system: Escherichia coli (ECO) isolates; test: as above; format: cell-based; conditions: Escherichia coli, alone
Method: as §3, §4

[6] = test system: Klebsiella pneumoniae (KPN) isolates; test: as above; format: cell-based
Method: as §3, §4

[7] = test system: Citrobacter freundii (CFR) isolates; test: as above; format: cell-based; conditions: Citrobacter freundii
Method: as §3, §4

OXA-51 = OXA-51 (Acinetobacter baumannii, UniProt Q5QT35)
Method: as §1, §2

[8] = test system: Proteus mirabilis (PMI) isolates; test: microbe, parasite or virus in culture; format: cell-based
Method: as §3, §4

TEM-1 = target: T7, TEM-1 (Escherichia coli, UniProt P62593); test: β-lactamase inhibitory activity, IC50 (nitrocefin hydrolysis); format: biochemical
T7 construct: made in house; host or cells: E. coli

OXA-1 = target: T8, OXA-1 (Escherichia coli, UniProt P13661); test: biochemical
T8 construct: made in house; host or cells: E. coli

OXA-48 = target: T9, OXA-48 (Klebsiella pneumoniae, UniProt Q6XEC0); test: biochemical
T9 construct: made in house; host or cells: E. coli

SHV-1 = target: T10, SHV-1 (Klebsiella pneumoniae, UniProt P0AD64); test: biochemical
T10 construct: made in house; host or cells: E. coli

OXA-23 = target: T11, OXA-23 (Acinetobacter baumannii, UniProt Q9L4P2); test: biochemical
T11 construct: made in house; host or cells: E. coli

PAE ampC = PAE ampC (Pseudomonas aeruginosa, UniProt P24735); test: biochemical
Method: as §1, §2

OXA-40 = target: T12, OXA-40 (Acinetobacter baumannii, UniProt Q8RLA6); test: biochemical
T12 construct: made in house; host or cells: E. coli
Method: as §1, §2

SAU PC1 = SAU PC1 (Staphylococcus aureus, UniProt P00807); test: biochemical
Method: as §1, §2

P99 ampC = target: T13, P99 ampC (Enterobacter cloacae, UniProt P05364); test: biochemical
T13 construct: made in house; host or cells: E. coli
Method: as §1, §2

[9] = Rat intraduodenal bioavailability determination (Method 3); format: in vivo, Sprague-Dawley (SD) rats; conditions: male, Sprague-Dawley, AF1 titrated in plasma
[10] = Mouse oral bioavailability determination, CEFIXIME/Example 3 combination (Method 4); parameters: species or system Swiss Mouse; conditions: male, Swiss; Mouse; intravenous 30 mg/kg; AF1 titrated in plasma; read-out: AUC0-∞
Method: Water and food were available ad libitum throughout the study. Mouse were handled in accordance with the institutional and national guidelines for the care and use of laboratory animals. […] Drugs were administered by oral gavage using feeding needle. […] Plasma samples were stored at -80° C. until bioanalysis. […] Plasma samples bioanalysis and data analysis The plasma samples (20 μl) were thawed at 0° C. […] Standard samples were prepared by spiking the blank plasma into concentrations 10-5 000 ng/ml and otherwise treated as the samples. […] Mass spectrometric detection involved electrospray ionization in the negative mode followed by multiple reaction monitoring of the drugs and internal standard transitions. Actual drug concentrations were deduced from interpolation of the standard curve. The pharmacokinetic parameters were calculated using XLfit (IDBS) and Excel (Microsoft) software, using standard non-compartmental methods. The intraduodenal bioavailability was calculated by dividing the AUC obtained from the intraduodenal administration by the AUC obtained from the intravenous administration.

Chain of CMY-37 (Citrobacter freundii) (A0A9R8 21-381): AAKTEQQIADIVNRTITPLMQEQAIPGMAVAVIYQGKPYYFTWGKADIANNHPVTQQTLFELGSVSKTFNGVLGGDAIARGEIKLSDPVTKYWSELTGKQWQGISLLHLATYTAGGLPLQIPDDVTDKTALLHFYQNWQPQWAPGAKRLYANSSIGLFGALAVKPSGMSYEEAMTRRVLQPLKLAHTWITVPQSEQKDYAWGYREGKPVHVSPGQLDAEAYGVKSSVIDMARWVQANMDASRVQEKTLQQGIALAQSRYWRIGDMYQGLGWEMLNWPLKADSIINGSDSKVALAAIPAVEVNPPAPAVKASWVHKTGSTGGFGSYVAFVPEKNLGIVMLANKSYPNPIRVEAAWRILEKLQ
T6 sequence (Q9EXV5 entry or part of it): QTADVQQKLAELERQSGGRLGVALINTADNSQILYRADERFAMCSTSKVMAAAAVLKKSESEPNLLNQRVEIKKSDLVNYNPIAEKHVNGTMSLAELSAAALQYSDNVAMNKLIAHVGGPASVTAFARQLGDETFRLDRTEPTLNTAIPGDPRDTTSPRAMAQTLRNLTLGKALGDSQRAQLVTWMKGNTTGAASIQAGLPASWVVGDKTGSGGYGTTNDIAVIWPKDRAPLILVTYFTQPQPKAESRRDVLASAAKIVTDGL
T3 sequence (Q51574 22-275): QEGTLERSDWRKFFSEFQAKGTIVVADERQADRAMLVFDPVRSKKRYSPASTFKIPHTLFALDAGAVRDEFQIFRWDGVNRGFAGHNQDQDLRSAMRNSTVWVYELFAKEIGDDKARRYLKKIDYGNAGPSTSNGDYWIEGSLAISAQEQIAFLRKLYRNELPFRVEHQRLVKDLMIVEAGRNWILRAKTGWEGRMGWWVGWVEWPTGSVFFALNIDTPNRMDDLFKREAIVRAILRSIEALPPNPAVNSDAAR
T12 sequence (Q8RLA6 entry or part of it): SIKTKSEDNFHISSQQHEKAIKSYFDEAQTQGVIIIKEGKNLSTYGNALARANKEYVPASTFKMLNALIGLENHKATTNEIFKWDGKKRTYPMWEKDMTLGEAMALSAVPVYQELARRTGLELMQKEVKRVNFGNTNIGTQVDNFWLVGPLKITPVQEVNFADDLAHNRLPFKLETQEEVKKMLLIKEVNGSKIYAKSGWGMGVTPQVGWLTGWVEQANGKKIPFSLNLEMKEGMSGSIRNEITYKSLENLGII
T13 sequence (P05364 21-381): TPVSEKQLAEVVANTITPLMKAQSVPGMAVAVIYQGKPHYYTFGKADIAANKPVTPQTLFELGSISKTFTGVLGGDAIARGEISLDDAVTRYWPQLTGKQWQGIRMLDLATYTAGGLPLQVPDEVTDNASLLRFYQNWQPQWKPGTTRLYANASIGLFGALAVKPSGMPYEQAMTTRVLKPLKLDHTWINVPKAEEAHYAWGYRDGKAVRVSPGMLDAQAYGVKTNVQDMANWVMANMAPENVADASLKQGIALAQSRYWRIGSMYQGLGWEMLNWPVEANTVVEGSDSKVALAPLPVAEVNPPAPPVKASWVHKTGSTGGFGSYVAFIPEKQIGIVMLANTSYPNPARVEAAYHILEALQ
T9 sequence (Q6XEC0 23-265 limits assumed): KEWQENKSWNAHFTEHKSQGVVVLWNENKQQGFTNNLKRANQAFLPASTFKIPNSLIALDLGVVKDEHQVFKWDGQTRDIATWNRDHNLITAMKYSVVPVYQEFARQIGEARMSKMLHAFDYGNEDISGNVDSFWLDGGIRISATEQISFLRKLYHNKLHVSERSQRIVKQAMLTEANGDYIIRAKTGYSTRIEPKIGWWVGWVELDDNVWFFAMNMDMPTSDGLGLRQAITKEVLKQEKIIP
Chain of SAU PC1 (P00807 25-281): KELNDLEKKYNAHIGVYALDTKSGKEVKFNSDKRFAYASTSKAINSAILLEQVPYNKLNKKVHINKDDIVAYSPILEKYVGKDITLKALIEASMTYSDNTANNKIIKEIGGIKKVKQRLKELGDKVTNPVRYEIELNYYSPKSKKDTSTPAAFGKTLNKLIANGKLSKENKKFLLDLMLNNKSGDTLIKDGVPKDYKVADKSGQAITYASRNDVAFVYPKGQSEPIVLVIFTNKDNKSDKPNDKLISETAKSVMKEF
T4 sequence (Q2TR58 19-280, species assumed): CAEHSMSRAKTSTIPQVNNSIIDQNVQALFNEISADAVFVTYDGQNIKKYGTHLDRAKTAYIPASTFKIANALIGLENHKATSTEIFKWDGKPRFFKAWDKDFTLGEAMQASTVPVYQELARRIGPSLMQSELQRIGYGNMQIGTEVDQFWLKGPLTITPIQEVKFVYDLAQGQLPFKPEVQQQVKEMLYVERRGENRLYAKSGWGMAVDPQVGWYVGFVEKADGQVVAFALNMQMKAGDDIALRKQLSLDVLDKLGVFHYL
T7 sequence (P62593 24-286 limits assumed): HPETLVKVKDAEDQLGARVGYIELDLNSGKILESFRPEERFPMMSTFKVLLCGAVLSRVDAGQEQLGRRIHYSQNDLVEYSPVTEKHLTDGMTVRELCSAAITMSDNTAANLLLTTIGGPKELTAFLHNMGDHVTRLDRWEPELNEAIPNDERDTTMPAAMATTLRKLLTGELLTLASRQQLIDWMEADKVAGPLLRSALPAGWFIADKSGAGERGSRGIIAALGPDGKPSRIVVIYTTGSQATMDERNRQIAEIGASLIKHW
T8 sequence (P13661 26-276): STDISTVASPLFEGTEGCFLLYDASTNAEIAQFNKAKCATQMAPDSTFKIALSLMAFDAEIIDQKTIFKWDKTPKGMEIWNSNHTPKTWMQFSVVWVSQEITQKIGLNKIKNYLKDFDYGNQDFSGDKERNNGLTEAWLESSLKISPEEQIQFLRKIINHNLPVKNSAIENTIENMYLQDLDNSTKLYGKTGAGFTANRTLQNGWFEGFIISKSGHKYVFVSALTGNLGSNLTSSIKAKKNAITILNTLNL
T1 sequence (P0AD64 22-286 L31Q/G234S/E235K): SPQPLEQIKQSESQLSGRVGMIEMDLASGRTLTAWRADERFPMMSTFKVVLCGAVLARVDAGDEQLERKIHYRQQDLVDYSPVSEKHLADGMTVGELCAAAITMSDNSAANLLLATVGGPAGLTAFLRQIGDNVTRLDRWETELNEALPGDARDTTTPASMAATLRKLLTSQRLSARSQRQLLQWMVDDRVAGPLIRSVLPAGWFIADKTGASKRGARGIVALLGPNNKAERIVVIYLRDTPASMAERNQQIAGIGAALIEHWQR
T5 sequence (Q06778 21-266): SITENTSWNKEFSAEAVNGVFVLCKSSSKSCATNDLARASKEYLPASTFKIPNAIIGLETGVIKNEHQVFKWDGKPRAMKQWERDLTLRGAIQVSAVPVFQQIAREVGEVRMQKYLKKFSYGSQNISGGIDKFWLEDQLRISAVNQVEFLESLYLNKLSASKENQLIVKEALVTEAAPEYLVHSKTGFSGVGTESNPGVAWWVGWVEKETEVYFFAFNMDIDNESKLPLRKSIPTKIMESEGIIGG
Chain of PAE ampC (P24735 27-397): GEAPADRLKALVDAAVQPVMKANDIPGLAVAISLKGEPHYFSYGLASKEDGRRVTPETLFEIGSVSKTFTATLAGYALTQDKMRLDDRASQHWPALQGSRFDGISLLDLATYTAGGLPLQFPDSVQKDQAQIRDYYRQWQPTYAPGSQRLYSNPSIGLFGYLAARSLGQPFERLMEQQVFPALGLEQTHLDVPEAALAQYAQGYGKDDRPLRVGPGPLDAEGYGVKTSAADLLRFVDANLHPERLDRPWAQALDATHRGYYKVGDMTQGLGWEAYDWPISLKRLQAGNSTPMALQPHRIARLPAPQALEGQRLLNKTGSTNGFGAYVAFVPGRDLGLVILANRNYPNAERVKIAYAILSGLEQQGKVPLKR
Chain of OXA-51 (Q5QT35 26-274): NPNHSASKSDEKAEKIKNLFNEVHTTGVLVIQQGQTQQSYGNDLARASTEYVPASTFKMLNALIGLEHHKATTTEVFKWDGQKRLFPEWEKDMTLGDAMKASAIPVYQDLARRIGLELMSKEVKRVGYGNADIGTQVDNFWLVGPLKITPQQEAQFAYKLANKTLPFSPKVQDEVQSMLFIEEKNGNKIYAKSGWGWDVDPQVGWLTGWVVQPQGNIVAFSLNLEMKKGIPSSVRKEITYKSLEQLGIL
T10 sequence (P0AD64 22-286): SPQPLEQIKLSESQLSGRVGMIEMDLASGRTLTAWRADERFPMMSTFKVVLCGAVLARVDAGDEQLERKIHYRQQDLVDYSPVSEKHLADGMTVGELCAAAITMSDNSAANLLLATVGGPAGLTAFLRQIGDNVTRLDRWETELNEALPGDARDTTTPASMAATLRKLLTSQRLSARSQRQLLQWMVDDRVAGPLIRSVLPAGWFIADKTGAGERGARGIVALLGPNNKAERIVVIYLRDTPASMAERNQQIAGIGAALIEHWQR
T2 sequence (Q9F663 25-293 limits assumed): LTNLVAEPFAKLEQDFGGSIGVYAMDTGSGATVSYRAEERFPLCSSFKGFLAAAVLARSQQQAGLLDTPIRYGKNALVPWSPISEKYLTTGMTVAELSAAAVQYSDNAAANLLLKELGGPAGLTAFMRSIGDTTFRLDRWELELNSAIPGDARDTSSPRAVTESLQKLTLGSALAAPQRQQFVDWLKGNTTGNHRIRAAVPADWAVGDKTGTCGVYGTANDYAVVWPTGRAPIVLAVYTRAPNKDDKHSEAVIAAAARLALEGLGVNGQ
T11 sequence (Q9L4P2 18-273): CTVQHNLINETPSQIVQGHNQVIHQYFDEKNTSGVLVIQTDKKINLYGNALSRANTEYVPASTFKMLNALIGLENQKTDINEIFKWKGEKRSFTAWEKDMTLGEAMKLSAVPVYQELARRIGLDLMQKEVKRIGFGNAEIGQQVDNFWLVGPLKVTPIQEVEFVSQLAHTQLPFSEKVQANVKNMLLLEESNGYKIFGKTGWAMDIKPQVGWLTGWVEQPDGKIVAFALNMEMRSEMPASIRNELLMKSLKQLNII

Structure (SMILES) | IC50 (SHV-12) [µM] | IC50 (KPC-2) [µM] | IC50 (OXA-15) [µM] | IC50 (OXA-58) [µM] | IC50 (OXA-11) [µM] | IC50 [1] [µM] | IC50 (CTX-M-15) [µM] | IC50 (OXA-1) [µM] | IC50 (OXA-48) [µM] | IC50 (SHV-1) [µM] | IC50 (OXA-23) [µM] | IC50 (PAE ampC) [µM] | IC50 (OXA-40) [µM] | IC50 (SAU PC1) [µM] | IC50 (P99 ampC) [µM] | other results
N#C[C@@H]1CC[C@@H]2CN1C(=O)N2OC(F)(F)C(=O)[O-].[Na+] [AF2, sodium 2-[[(2S,5R)-2-cyano-7-oxo-1,6-diazabicyclo[3.2.1]octan-6-yl]oxy]-2,2-difluoro-acetate] | 0.0011 | 0.012 | 0.004 | 0.0021 | 0.013 | 0.07 | 0.00016 | 0.011 | 0.0007 | 0.0014 | 0.011 | 0.14 | 0.012 | 0.0031 | 0.054 | MIC [2]: > 32 µg/mL; MIC [3]: > 32 µg/mL; MIC [4]: > 32 µg/mL; MIC ([5]; ECO 190317): > 32 µg/mL; MIC ([5]; ECO 190457): 16 µg/mL; MIC ([5]; ECO UFR16): > 32 µg/mL; MIC ([5]; ECO UFR20): > 32 µg/mL; MIC ([5]; ECO UFR61O): > 32 µg/mL; MIC ([5]; ECO UFR209): 32 µg/mL; MIC ([6]; KPN 131119, alone): >32 µg/mL; MIC ([6]; KPN 190270, alone): >32 µg/mL; MIC ([6]; KPN UFR25, alone): >32 µg/mL; MIC ([6]; KPN UFR66, alone): >32 µg/mL; MIC ([6]; KPN UFR68, alone): >32 µg/mL; MIC ([6]; Klebsiella pneumoniae): > 32 µg/mL; MIC [7]: > 32 µg/mL; IC50 (OXA-51; OXA-51, 30 min pre-incubation, nitrocefin 100 μM): 0.051 µM; MIC ([8]; PMI UFR127, alone): >32 µg/mL; MIC ([8]; Proteus mirabilis): > 32 µg/mL; IC50 (TEM-1): 0.00096 µM
NC(=O)[C@@H]1CC[C@@H]2CN1C(=O)N2OC(F)(F)C(=O)[O-].[Na+] [AF1] | 0.0011 | 0.04 | 0.071 | 0.4 | 1 | 0.74 | 0.00021 | 1.1 | 0.075 | 0.00012 | 1.7 | 0.66 | 2.1 | 0.071 | 0.55 | AUC(0-inf) ([9]; intravenous 10 mg/kg): 4130 ng·h/mL; AUC(0-inf) ([9]; intravenous 20 mg/kg, Phosphate pH 7.4, solution): 12500 ng·h/mL; IC50 (OXA-51): 1.7 µM; IC50 (TEM-1; TEM-1, 30 min pre-incubation, nitrocefin 100 μM, read-out: IC50): 0.00022 µM; AUC(0-inf) [10]: 11200 ng·h/mL
